Columns and labels:
[1] = target: T1, Recombinant (1-346) HPK1 (h) (Homo sapiens, UniProt Q92918); test: HPK1 Human STE Kinase Enzymatic Radiometric Assay; type: biochemical; settings: [gamma-33P]-ATP, myelin basic protein substrate, read-out: HPK1 IC50 nM Range*
T1 construct: Recombinant (1-346) HPK1 (h) is incubated with 8 mM MOPS pH 7.0
T1 sequence (Q92918 1-346): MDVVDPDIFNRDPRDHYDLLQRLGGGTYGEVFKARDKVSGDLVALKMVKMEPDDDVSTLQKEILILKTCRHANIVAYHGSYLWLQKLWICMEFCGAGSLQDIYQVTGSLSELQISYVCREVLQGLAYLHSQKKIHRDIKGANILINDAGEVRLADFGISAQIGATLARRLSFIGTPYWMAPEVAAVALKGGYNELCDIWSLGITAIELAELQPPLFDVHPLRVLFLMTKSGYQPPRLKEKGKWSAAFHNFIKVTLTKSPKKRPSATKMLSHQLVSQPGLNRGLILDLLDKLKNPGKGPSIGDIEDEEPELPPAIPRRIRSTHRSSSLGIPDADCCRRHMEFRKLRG
Method: (a) HPK1 Human STE Kinase Enzymatic Radiometric Assay
A stock solution of 10 mM of test compound is prepared in DMSO. The compound plate was prepared by 3-fold and 9-point serial dilutions. Recombinant (1-346) HPK1 (h) is incubated with 8 mM MOPS pH 7.0, 0.2 mM EDTA, 0.33 mg/mL myelin basic protein, 10 mM MgAcetate and [gamma-33P]-ATP (specific activity and concentration as required). The reaction is initiated by the addition of the Mg/ATP mix. After incubation for 40 minutes at RT, the reaction is stopped by the addition of phosphoric acid to a concentration of 0.5%. 10 uL of the reaction is then spotted onto a P30 filtermat and washed four times for 4 minutes in 0.425% phosphoric acid and once in methanol prior to drying and scintillation counting. For more details of kinase assay protocols, see: Gao, Y. et. al.; Biochem J. 451 (2): 313-328, 2013.

Lck (h) = Lck (h) (Homo sapiens, UniProt P06239); test: Lck Human STE Kinase Enzymatic Radiometric Assay; type: biochemical; settings: for IC50: radiometric, [gamma-33P]-ATP, Cdc2 peptide substrate, read-out: Lck IC50, nM Range*; for Selectivity: selectivity for inhibition of HPK1 vs Lck
Chain of Lck (h) (P06239 whole entry): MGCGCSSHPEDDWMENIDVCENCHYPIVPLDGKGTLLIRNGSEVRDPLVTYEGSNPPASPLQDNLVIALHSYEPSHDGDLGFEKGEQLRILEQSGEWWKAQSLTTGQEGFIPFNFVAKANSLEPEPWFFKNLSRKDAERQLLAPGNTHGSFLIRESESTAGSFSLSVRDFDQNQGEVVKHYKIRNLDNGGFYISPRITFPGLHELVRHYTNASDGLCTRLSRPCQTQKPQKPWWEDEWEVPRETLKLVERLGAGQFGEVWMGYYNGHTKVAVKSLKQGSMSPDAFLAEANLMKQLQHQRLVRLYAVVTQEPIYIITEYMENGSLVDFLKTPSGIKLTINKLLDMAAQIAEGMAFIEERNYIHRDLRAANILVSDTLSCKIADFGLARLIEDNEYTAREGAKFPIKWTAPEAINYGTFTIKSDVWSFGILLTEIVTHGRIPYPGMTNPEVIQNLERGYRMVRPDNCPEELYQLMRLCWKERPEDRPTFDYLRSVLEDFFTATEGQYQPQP
Method: (b) Lck Human STE Kinase Enzymatic Radiometric Assay
Lck (h) is incubated with 50 mM Tris pH 7.5, 0.1 mM EGTA, 0.1 mM Na3VO4, 250 uM KVEKIGEGTYGVVYK (Cdc2 peptide), 10 mM MgAcetate and [gamma-33P]-ATP (specific activity and concentration as required). The reaction is initiated by the addition of the Mg/ATP mix. After incubation for 40 minutes at room temperature, the reaction is stopped by the addition of phosphoric acid to a concentration of 0.5%. 10 uL of the reaction is then spotted onto a P30 filtermat and washed four times for 4 minutes in 0.425% phosphoric acid and once in methanol prior to drying and scintillation counting. For more details on the kinase assay procedures see: Gao, Y. et. al.; Biochem J., 451 (2): 313-328, 2013.
In some embodiments the presence of substituents on monocyclic Cy^2 rings or when Cy^2 is a bicyclic ring (unsubstituted or substituted) provides compounds with improved selectivity for inhibition of HPK1 vs Lck (see, for example, Table 3 and Table 4).

CC(C)N1CCN(c2ccc(-c3cnc(N)c(-c4ccc5c(c4)CCNC5=O)n3)cc2)CC1 [Example I-3, 6-(3-amino-6-(4-(4-isopropylpiperazin-1-yl)phenyl)pyrazin-2-yl)-3,4-dihydroisoquinolin-1(2H)-one]
IC50 [1]: 0.1 to 5 nM
IC50 (Lck (h)): 6 to 10 nM

C[C@@H]1CCCCN1c1ccc(-c2cnc(N)c(-c3ccc4c(c3)CCNC4=O)n2)c(F)c1 [Example I-17, (R)-6-(3-amino-6-(2-fluoro-4-(2-methylpiperidin-1-yl)phenyl)pyrazin-2-yl)-3,4-dihydroisoquinolin-1(2H)-one]
IC50 [1]: 0.1 to 5 nM
IC50 (Lck (h)): 21 to 200 nM

C[C@@H]1COCCN1c1ccc(-c2cnc(N)c(-c3ccc4c(c3)CCNC4=O)n2)c(F)c1 [Example I-22, (R)-6-(3-amino-6-(2-fluoro-4-(3-methylmorpholino)phenyl)pyrazin-2-yl)-3,4-dihydroisoquinolin-1(2H)-one]
IC50 [1]: 6 to 10 nM
IC50 (Lck (h)): 21 to 200 nM

CC(C)[C@@H]1CN(c2ccc(-c3cnc(N)c(-c4ccc5c(c4)CCNC5=O)n3)c(F)c2)CCO1 [Example I-13, (R)-6-(3-amino-6-(2-fluoro-4-(2-isopropylmorpholino)phenyl)pyrazin-2-yl)-3,4-dihydroisoquinolin-1(2H)-one]
IC50 [1]: 0.1 to 5 nM
IC50 (Lck (h)): 21 to 200 nM
Selectivity (Lck (h)): 2740

CC(C)C1CCCN(c2ccc(-c3cnc(N)c(-c4ccc5c(c4)CCNC5=O)n3)c(F)c2)C1 (stereo not shown) [Example I-25, 6-(3-amino-6-(2-fluoro-4-(3-isopropylpiperidin-1-yl)phenyl)pyrazin-2-yl)-3,4-dihydroisoquinolin-1(2H)-one]
IC50 [1]: 6 to 10 nM
IC50 (Lck (h)): 21 to 200 nM

Nc1ncc(-c2ccc(N3CCC(O)CC3)cc2)nc1-c1ccc2c(c1)CCNC2=O [Example I-6, 6-(3-amino-6-(4-(4-hydroxypiperidin-1-yl)phenyl)pyrazin-2-yl)-3,4-dihydroisoquinolin-1(2H)-one]
IC50 [1]: 0.1 to 5 nM
IC50 (Lck (h)): 11 to 20 nM

CC(C)N1CCN(c2ccc(-c3cnc(N)c(-c4cc5c(cc4F)C(=O)NCC5)n3)cc2)CC1 [Example I-44, 6-(3-amino-6-(4-(4-isopropylpiperazin-1-yl)phenyl)pyrazin-2-yl)-7-fluoro-3,4-dihydroisoquinolin-1(2H)-one]
IC50 [1]: 0.1 to 5 nM
IC50 (Lck (h)): 11 to 20 nM

Nc1ncc(-c2ccc(N3CCN(CC(F)(F)F)CC3)cc2)nc1-c1ccc2c(c1)CCNC2=O [Example I-35, 6-(3-amino-6-(4-(4-(2,2,2-trifluoroethyl)piperazin-1-yl)phenyl)pyrazin-2-yl)-3,4-dihydroisoquinolin-1(2H)-one]
IC50 [1]: 0.1 to 5 nM
IC50 (Lck (h)): 11 to 20 nM

CC(C)C1CCCN(c2ccc(-c3cnc(N)c(-c4ccc5c(c4)CCNC5=O)n3)cc2)C1 (stereo not shown) [Example I-24, 6-(3-amino-6-(4-(3-isopropylpiperidin-1-yl)phenyl)pyrazin-2-yl)-3,4-dihydroisoquinolin-1(2H)-one]
IC50 [1]: 0.1 to 5 nM
IC50 (Lck (h)): 21 to 200 nM

CC(C)[C@H]1CN(c2ccc(-c3cnc(N)c(-c4cc5c(cc4F)C(=O)NCC5)n3)c(F)c2)CCO1 [Example I-30, (S)-6-(3-amino-6-(2-fluoro-4-(2-isopropylmorpholino)phenyl)pyrazin-2-yl)-7-fluoro-3,4-dihydroisoquinolin-1(2H)-one]
IC50 [1]: 0.1 to 5 nM
IC50 (Lck (h)): 21 to 200 nM

CN1CCN(c2ccc(-c3cnc(N)c(-c4cc(F)c5c(c4)CCNC5=O)n3)cc2)CC1 [Example I-5, 6-(3-amino-6-(4-(4-methylpiperazin-1-yl)phenyl)pyrazin-2-yl)-8-fluoro-3,4-dihydroisoquinolin-1(2H)-one]
IC50 [1]: 0.1 to 5 nM
IC50 (Lck (h)): 6 to 10 nM

CC(C)[C@H]1CN(c2ccc(-c3cnc(N)c(-c4ccc5c(c4)CCNC5=O)n3)c(F)c2)CCO1 [Example I-14, (S)-6-(3-amino-6-(2-fluoro-4-(2-isopropylmorpholino)phenyl)pyrazin-2-yl)-3,4-dihydroisoquinolin-1(2H)-one]
IC50 [1]: 0.1 to 5 nM
IC50 (Lck (h)): 21 to 200 nM
Selectivity (Lck (h)): 1066

C[C@H]1CCCCN1c1ccc(-c2cnc(N)c(-c3ccc4c(c3)CCNC4=O)n2)c(F)c1 [Example I-18, (S)-6-(3-amino-6-(2-fluoro-4-(2-methylpiperidin-1-yl)phenyl)pyrazin-2-yl)-3,4-dihydroisoquinolin-1(2H)-one]
IC50 [1]: 6 to 10 nM
IC50 (Lck (h)): 21 to 200 nM

CC(C)[C@@H]1CN(c2ccc(-c3cnc(N)c(-c4cc5c(cc4F)C(=O)NCC5)n3)cc2)CCO1 [Example I-27, (R)-6-(3-amino-6-(4-(2-isopropylmorpholino)phenyl)pyrazin-2-yl)-7-fluoro-3,4-dihydroisoquinolin-1(2H)-one]
IC50 [1]: 0.1 to 5 nM
IC50 (Lck (h)): 6 to 10 nM

Nc1ncc(-c2ccc([C@]34C[C@H]3CN(C3CC3)C4)cc2)nc1-c1cc2c(cc1F)C(=O)NCC2 [Example I-52, 6-(3-amino-6-(4-((1S,5R)-3-cyclopropyl-3-azabicyclo[3.1.0]hexan-1-yl)phenyl)pyrazin-2-yl)-7-fluoro-3,4-dihydroisoquinolin-1(2H)-one]
IC50 [1]: 0.1 to 5 nM
IC50 (Lck (h)): 6 to 10 nM

Cc1[nH]c(=O)c2cc(F)c(-c3nc(-c4ccc(C5CCOCC5)c(CN(C)C)c4)cnc3N)cc2c1F [II-6, 6-(3-amino-6-(3-((dimethylamino)methyl)-4-(tetrahydro-2H-pyran-4-yl)phenyl)pyrazin-2-yl)-4,7-difluoro-3-methylisoquinolin-1(2H)-one]
IC50 [1]: 0.1 to 5 nM
IC50 (Lck (h)): 21 to 200 nM

CC(C)[C@@H]1CN(c2ccc(-c3cnc(N)c(-c4cc5c(cc4F)C(=O)NCC5)n3)c(F)c2)CCO1 [Example I-29, (R)-6-(3-amino-6-(2-fluoro-4-(2-isopropylmorpholino)phenyl)pyrazin-2-yl)-7-fluoro-3,4-dihydroisoquinolin-1(2H)-one]
IC50 [1]: 0.1 to 5 nM
IC50 (Lck (h)): 21 to 200 nM

CN1C[C@@H]2C[C@]2(c2ccc(-c3cnc(N)c(-c4cc5c(cc4F)C(=O)NCC5)n3)cc2)C1 [Example I-47, 6-(3-amino-6-(4-((1S,5R)-3-methyl-3-azabicyclo[3.1.0]hexan-1-yl)phenyl)pyrazin-2-yl)-7-fluoro-3,4-dihydroisoquinolin-1(2H)-one]
IC50 [1]: 0.1 to 5 nM
IC50 (Lck (h)): 11 to 20 nM

CN1CCN(c2ccc(-c3cnc(N)c(-c4ccc5c(c4)CCNC5=O)n3)cc2)C=N1 [Example I-33, 6-(3-amino-6-(4-(1-methyl-5,6-dihydro-1,2,4-triazin-4(1H)-yl)phenyl)pyrazin-2-yl)-3,4-dihydroisoquinolin-1(2H)-one]
IC50 [1]: 0.1 to 5 nM
IC50 (Lck (h)): 11 to 20 nM

— patent US20240317723A1, “SUBSTITUTED AMINO AZA-HETEROARYL COMPOUNDS AS INHIBITORS OF THE HAEMATOPOIETIC PROGENITOR KINASE 1 (HPK1)” (priority 2021, published 2024)
